The results in this text go back to patent US20090149417A1, “Methods and compositions for the treatment of cancer using benzopyrone-type PARP inhibitors” (priority 2007, published 2009).

Experiment [1] deals with human tumor cells including pancreatic, breast, uterine, lung, prostate, and ovarian cancer cells. The experiment in a line: Proliferation of human tumor cells in vitro (summary). It is filed as cell-based.
Experiment [2] deals with COLO357FG and MiaPaCa-2. The experiment in a line: Combination with oxaliplatin, BrdU proliferation, Chou and Talalay's method. The following applies: combination of IIIg with oxaliplatin. The format is cell-based, human. The method, then:
This example provides the assessment of IIIg in combination with an anti-tumor agent, oxaliplatin, on the proliferation of two human pancreatic tumor cell lines, COLO357FG and MiaPaCa-2, in vitro. Cell proliferation is measured by BrdU incorporation as described in detail hereinabove. The experiments are performed according to Chou and Talalay's method (Chou T C, Talalay P. Quantitative analysis of dose-effect relationships: the combined effects of multiple drugs or enzyme inhibitors. Adv Enzyme Regul 1984, 22: 27-55).

For experiment [3], the system named is human MX-1 breast carcinoma. The experiment in a line: Human MX-1 breast carcinoma xenograft model in nude mice. The format is in vivo. The method, then:
Female athymic nude mice (nu/nu, Harlan) are 10 weeks old, and have a body weight (BW) range of 18.1-27.0 g on D1 of the study. The animals are fed ad libitu water (reverse osmosis, 1 ppm Cl) and NIH 31 Modified and Irradiated Lab Diet® consisting of 18.0% crude protein, 5.0% crude fat, and 5.0% crude fiber. The mice are housed on irradiated ALPHA-dri® bed-o-cobs® Laboratory Animal Bedding in static microisolators on a 12-hour light cycle at 21-22° C. (70-72° F.) and 40-60% humidity. PRC specifically complies with the recommendations of the Guide for Care and Use of Laboratory Animals with respect to restraint, husbandry, surgical procedures, feed and fluid regulation, and veterinary care. […]
The human MX-1 breast carcinoma utilized in the present study is maintained in nude mice by serial engraftment. […] Tumors are monitored twice weekly and then daily as their volumes approached 80-120 mm^3. […] Tumor size, in mm3, is calculated from: […]
Tumors are calipered twice weekly for the duration of the study. […] The time to endpoint (TTE) for each mouse is calculated according to the following equation: […]
where TTE is expressed in days, endpoint volume is in mm3, b is the intercept, and m is the slope of the line obtained by linear regression of a log-transformed tumor growth data set. […] The calculated TTE is usually less than the day on which an animal is euthanized for tumor size. […]

Structures are written as SMILES.

Regarding `O=c1ccc2c(I)c([N+](=O)[O-])ccc2o1` [IIIg, 5-iodo-6-nitro-benzopyrone], the “Proliferation of human tumor cells” value in experiment [1] was “inhibits the proliferation”. For the same compound, the “Synergy with oxaliplatin on proliferation” value in experiment [2] was “synergizes with oxaliplatin”. The “Survival of tumor-bearing animals” value in experiment [3] (biweekly intraperitoneal injection, 100 mg/kg) is “prolongs survival”. Besides, the Tumor growth result in experiment [3] (once-daily or twice-weekly administration) was “inhibits tumor growth”.
